Experimental data published in PMC5424463, “A strategy based on nucleotide specificity leads to a subfamily-selective and cell-active inhibitor of N ^6-methyladenosine demethylase FTO” (Chemical Science, 2014).
pIC50: −log10 of the molar value. Values joined by “and” are separate entries in the source; they are usually repeats but may differ in a detail not shown here. Identical values can stand only once.

Columns and labels:
ALKBH2 [1] = target: T1, ALKBH2 (Homo sapiens, UniProt Q6NS38); test: Differential scanning fluorimetry (DSF)-based binding assay, ALKBH2; conditions: DSF, 100 μM compound, 2 μM protein, 50 μM MnCl2; read-out: Tm shift (ALKBH2)
T1 construct: made in house; host or cells: E. coli BL21 (DE3)
T1 sequence (Q6NS38 56-258): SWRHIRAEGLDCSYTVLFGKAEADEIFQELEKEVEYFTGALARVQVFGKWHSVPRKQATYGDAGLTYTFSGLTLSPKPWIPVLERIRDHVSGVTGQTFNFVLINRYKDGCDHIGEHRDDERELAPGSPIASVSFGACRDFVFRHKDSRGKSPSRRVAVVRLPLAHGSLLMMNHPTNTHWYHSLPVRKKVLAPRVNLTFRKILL
Procedure: (§1) Superdex-200 column (GE Healthcare) pre-equilibrated with 20 mM HEPES, pH 7.5, 300 mM NaCl, 10% (v/v) glycerol, 0.5 mM TCEP. […]
(§2) Differential scanning fluorimetry (DSF)-based binding assay
(§3) DSF-based binding assay was performed using a MiniOpticon™ Real-Time PCR Detection System (Bio-Rad), monitoring protein unfolding using SYPRO orange (Invitrogen) according to the reported method.[16] FAM (492 nm) and ROX (610 nm) filters were used for excitation and emission respectively. Reaction mixes contained 2 μM protein, 50 μM MnCl2, 100 μM compounds, 5x SYPRO orange in a final volume of 50 μl. Reagents were prepared in 50mM HEPES buffer, pH 7.5 except metals, which were dissolved as 100 mM stocks in 20 mM HCl, then further diluted in MilliQ water. Compounds tested were prepared in 100% DMSO and added such that the final concentration of DMSO was not more than 1% v/v of assay […]
(§4) mix. Fluorescence readings were taken every 1°C in the range 25-95°C, with the temperature increased linearly by 1°C min -1. The software provided was used to perform global minimum subtraction. The inflection point, representing Tm, was calculated by fitting the Boltzmann equation to the sigmoidal curves obtained; data were processed using GraphPad Prism 6.0™.
(§5) The Tm shift caused by the addition of small molecules/ fragments was determined by subtraction of the “reference” Tm (protein incubated with metal and 1% v/v DMSO) from the Tm obtained in the presence of the compound. The assay was performed in triplicate for each inhibitor, with standard deviations typically < 1°C. […]

ALKBH3 = target: T2, ALKBH3 (Homo sapiens, UniProt Q96Q83); test: MALDI-based inhibition assay for ALKBH3; type: biochemical; conditions: 8-mer ssDNA substrate
T2 construct: Human ALKBH3 (encompassing residues 1- 286); purchased ProSpec-Tany Technogene Ltd, Israel
T2 sequence (Q96Q83 1-286): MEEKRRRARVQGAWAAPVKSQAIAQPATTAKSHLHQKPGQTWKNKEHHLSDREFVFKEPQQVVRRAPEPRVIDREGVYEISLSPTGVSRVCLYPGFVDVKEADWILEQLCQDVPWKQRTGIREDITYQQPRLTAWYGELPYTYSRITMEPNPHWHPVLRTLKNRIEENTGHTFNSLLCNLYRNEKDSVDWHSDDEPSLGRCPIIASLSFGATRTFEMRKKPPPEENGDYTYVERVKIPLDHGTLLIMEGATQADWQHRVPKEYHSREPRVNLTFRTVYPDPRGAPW
Procedure: MALDI-based inhibition assays for ALKBH3
An 8-mer m1A-ssDNA substrate with the sequence 5’-CAG(m1A)ATTC-3’ (Yale University, W.M. Keck Foundation Biotechnology Resource Laboratory) was used in this inhibition assay. The assay was performed in triplicate for each inhibitor, in a final reaction volume of 25 µL. Reaction consisted of ALKBH3 (2 µM), 2OG (150 µM), (NH4)2Fe(SO4)2·6H2O (150 µM), L-ascorbate (2 mM), […] (100 µM), in 50 mM HEPES buffer, pH 7.5, and inhibitor at various concentrations (final DMSO concentration not more than 1% v/v of assay mix). The reaction was incubated at room temperature for 30 min, before 1:1 quenching with 20% v/v formic acid. 1 uL of the diluted assay mixture was then mixed with 1 uL of 3-hydroxpicolinic acid (3-HPA, the MALDI-TOF-MS matrix, Sigma-Aldrich) and spotted onto the MALDI-TOF-MS plate before analysis. The 3-HPA matrix was prepared by mixing 9 parts of 50 mg/mL 3-hydroxpicolinic acid in 50% MeCN/Milli-Q H2O with 1 part of 50 mg/mL ammonium citrate in Milli-Q H2O.
The percentage inhibition was estimated based on the relative intensities of the methylated substrate and the demethylated product observed in the mass spectra. […]
Reaction consisted of PHD2 (4 µM), 2OG (150 µM),

AlkB [2] = target: T3, AlkB (Escherichia coli, UniProt P05050); test: Differential scanning fluorimetry (DSF)-based binding assay, AlkB; conditions: 100 μM compound, 2 μM protein, 50 μM MnCl2, read-out: Tm shift (AlkB)
T3 construct: made in house; host or cells: E. coli BL21 (DE3) Rosetta T1R
Procedure: as §1, §2, §3, §4, §5

AlkB [3] = target: T3, AlkB; test: HPLC-based inhibition assay for AlkB, m1A-ssDNA substrate; type: biochemical
Procedure: (§6) HPLC-based inhibition assays for AlkB and ALKBH2
(§7) The assay was modified from previously reported method.[18] A 15-mer m1A-ssDNA substrate with the sequence 5’-AAAGCAG(m1A)ATTCGAA-3 ’ (Yale University, W.M.
(§8) Keck Foundation Biotechnology Resource Laboratory) was used in this inhibition assay. The assay was performed in triplicate for each inhibitor, in a final reaction volume of 25 µL.
(§9) Reaction consisted of AlkB (1 µM) or ALKBH2 (2 µM), 2OG (50 µM), (NH4)2Fe(SO4)2·6H2O (50 µM), L-ascorbate (2 mM), m1A-ssDNA substrate (10 µM), in 50 mM HEPES buffer, pH 7.5, and inhibitor at various concentrations (final DMSO concentration not more than 1% v/v of assay mix). The reaction was incubated at 4°C for 10 min, before analysis on a bio-inert HPLC system. The m1A-ssDNA substrate and the corresponding demethylated product were separated using a Dionex DNAPac PA200 anion-exchange column (8 µm, […]) with a gradient of 98% solvent A (50 mM sodium citrate buffer, pH 5.5) to 65% solvent B (50 mM sodium citrate buffer, pH 5.5 with 1.25 M sodium chloride) over 18 min, at a flow rate of 1 mL/min at 40°C. The UV detection wavelength was set at 266 nm. The percentage inhibition was estimated based on the peak areas of the m1A-ssDNA substrate and the corresponding demethylated product. For IC50 determination, eight different concentrations of inhibitors were used (0, 1, 3, 10, 30, 100, 300, […]
(§10) different inhibitor concentrations, using nonlinear regression, with normalized dose-response fit on GraphPad Prism 6.0™. […]

ALKBH2 [4] = target: T1, ALKBH2; test: HPLC-based inhibition assay for ALKBH2, m1A-ssDNA substrate; type: biochemical
Procedure: as §6, §7, §8, §9, §10

T3 sequence (P05050 12-216): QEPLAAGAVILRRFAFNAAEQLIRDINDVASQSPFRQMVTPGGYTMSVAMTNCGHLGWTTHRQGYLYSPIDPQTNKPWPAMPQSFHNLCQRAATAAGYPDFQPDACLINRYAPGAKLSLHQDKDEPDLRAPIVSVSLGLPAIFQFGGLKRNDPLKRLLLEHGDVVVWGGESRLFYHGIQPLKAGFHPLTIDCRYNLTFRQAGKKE

| SMILES | ΔTm at 100 µM (ALKBH2 [1]) [°C] | pIC50 (ALKBH3) | ΔTm at 100 µM (AlkB [2]) [°C] | pIC50 (AlkB [3]) | pIC50 (ALKBH2 [4]) |
| --- | --- | --- | --- | --- | --- |
| O=C(O)/C=C/C(=O)NNC(=O)c1cnccc1Cc1ccccc1 [Compound 12] | 4.9 | 4.18 | 4.5 | 4.47 | 4.59 |
| O=C(O)/C=C/C(=O)NNC(=O)c1cccnc1 [Compound 21] | 2 | 3.94 | 1.8 | 3.77 | 3.82 and < 4.00 |
| O=C(O)C=CC(=O)NNC(=O)c1cc(Cc2ccccc2)ccn1 [Compound 22] | 3.7 | 4.27 | 3.2 | 4.17 | 4.40 |
| O=C(O)/C=C/C(=O)NNC(=O)c1ccccn1 [Compound 23] | 2.3 | 3.78 | 1.5 | 3.74 | 3.90 |
